Assays:
[1] = tested on: eIF2-GTP-Met-tRNAi ternary complex; test: Ternary complex assay (dual luciferase, firefly/renilla ratio) in stable KLN-tTA/pBISA-DL(ATF-4) cells; HTS and hit confirmation; type: cell-based, mouse; conditions: anti-cancer agents at 20 μM, ternary complex assay
[2] = tested on: eIF2-GTP-Met-tRNAi ternary complex; test: Ternary complex / ATF-4 dual luciferase assay in human cancer cell lines co-transfected with tTA and pBISA-DL(ATF-4) (CRL-2351, PC-3, CRL-2813); type: cell-based; conditions: CRL-2351 cell line
Experimental: FIGS. 8A-8D depict that N,N′-diarylureas reduce the availability of the eIF2-GTP-Met-tRNAi ternary complex in human cancer cells. A-C) PC-3, CR-L2351, and CRL-2813 human cancer cell lines were co-transfected with pBISA-DL^(ATF-4) and ptTA plasmids. One day post-transfection, the cells were treated with the indicated concentrations of N,N′-diarylureas. Firefly/renilla ratio was determined by DLR assay 8 hours after treatment. D) PC-3, CR-L2351, and CRL-2813 human cancer cell lines were treated with the indicated concentrations of N,N′-diarylureas four 8 hours, and expression of endogenous CHOP mRNA was determined by real-time PCR.
For example, reducing amount of the ternary complex increases translation of ATF-4, which results in elevated expression of CHOP mRNA and protein. Therefore, expression of endogenous CHOP mRNA and CHOP protein in KLN-tTA/pBISA-DL^(ATF-4) cells were utilized as secondary assays to validate N,N′-diarylurea compounds as modifiers of the eIF2⋅GTP⋅Met-tRNAi ternary complex. […] To rule out the possibility that the activity of N,N′-diarylurea compounds was confined to a single cell type, the effects of these compounds on the ternary complex assay and the expression of CHOP mRNA was assayed in CRL-2351, PC-3, CRL-2813 human breast, prostate, and melanoma cancer cell lines respectively. For the reporter gene assay, the three human cell lines were co-transfected with tTA expression vector and the pBISA-DL^(ATF-4) dual luciferase expression vector shown in FIG. 6. […] The expression of CHOP mRNA was assayed by real time PCR in the same cell lines treated with 5 or 20 μM of each compound. […]
Stable and transient transfection: Cells were seeded at the density of 10^5 in 60-mm (stable transfection) or 10^4 cells per well of 96-well plate (transient transfection) plates and transfected one day later using the Qiagen Transfectamine transfection kit. For selection of stable cell lines, transfected cells were transferred to 100-mm plates and selected with appropriate antibiotics.
Dual luciferase assay: Cells or minced tumors expressing firefly and renilla luciferases were lysed and the extracts assayed with a glow type dual luciferase assay kit, per manufacturer's instruction (Promega Inc., Madison, Wis.).

[3] = tested on: eIF2-GTP-Met-tRNAi ternary complex; test: Ternary complex assay (dual luciferase, firefly/renilla ratio) in stable KLN-tTA/pBISA-DL(ATF-4) cells; HTS and hit confirmation; type: cell-based, mouse; set-up: Activity 10 uM / Activity 2.5 uM / Activity 5 uM: unit not given here; conditions: for Activity 2.5 uM: compound at 2.5 uM; for Activity 2.5 uM / Activity 10 uM / Activity 5 uM: confirmed hits of the screen (Table 5); for Activity 10 uM: compound at 10 uM; for Activity 5 uM: compound at 5 uM; for Effect on firefly/renilla luciferase ratio: KLN-tTA/pBISA-DL(ATF-4) colonies, assay validation

N=C(N)NC(=O)c1nc(Cl)c(N)nc1N [Amiloride]
Relative F-luc/R-luc Ratio (+/− SEM) [1]: 1.1 + 0.3

Clc1ccccc1C(c1ccccc1)(c1ccccc1)n1ccnc1 [CLT, clotrimazole, reference compound]
Relative F-luc/R-luc Ratio (+/− SEM) [1]: 6 + 1.1

CC[C@@]1(O)C(=O)OCc2c1cc1n(c2=O)Cc2cc3ccccc3nc2-1 [Camptothecin]
Relative F-luc/R-luc Ratio (+/− SEM) [1]: 1.3 + 0.3

COc1cc2c(c(OC)c1OC)-c1ccc(OC)c(=O)cc1[C@@H](NC(C)=O)CC2 [Colchicine]
Relative F-luc/R-luc Ratio (+/− SEM) [1]: 1.2 + 0.3

O=C(Nc1ccc(Cl)c(Cl)c1)Nc1ccc(Cl)c(Cl)c1 [Compound 1, 1,3-bis(3,4-dichlorophenyl)urea]
ATF-4 Cmax (concentration corresponding to the maximal activity) [2]: 5 µM

O=C(Nc1ccc(Cl)c(C(F)(F)F)c1)Nc1ccc(Cl)c(C(F)(F)F)c1 [Compound 2, 1,3-bis[4-chloro-3-(trifluoromethyl)phenyl]urea]
ATF-4 Cmax (concentration corresponding to the maximal activity) [2]: 2.4 µM

O=C(Nc1cc(C(F)(F)F)cc(C(F)(F)F)c1)Nc1cc(C(F)(F)F)cc(C(F)(F)F)c1 [Compound 3, 1,3-bis[3,5-bis(trifluoromethyl)phenyl]urea]
ATF-4 Cmax (concentration corresponding to the maximal activity) [2]: 2.5 µM

CC(C)Cn1c(=O)n(C)c(=O)c2[nH]cnc21 [Compound 3-isobutyl-1-methylxanthine]
Relative F-luc/R-luc Ratio (+/− SEM) [1]: 1.1 + 0.2

Cc1ccc(NC(=O)Nc2ccc(Cl)c(Cl)c2)cc1O [Compound 4, 3-(3,4-dichlorophenyl)-1-(3-hydroxy-4-methylphenyl)urea]
ATF-4 Cmax (concentration corresponding to the maximal activity) [2]: 20 µM

Cc1ccc(NC(=O)Nc2ccc(Cl)c(C(F)(F)F)c2)cc1O [Compound 5, 3-[4-chloro-3-(trifluoromethyl)phenyl]-1-(3-hydroxy-4-methylphenyl)urea]
ATF-4 Cmax (concentration corresponding to the maximal activity) [2]: 10 µM

O=c1[nH]cc(F)c(=O)[nH]1 [Compound 5-fluorouracil, 5-fluorouracil]
Relative F-luc/R-luc Ratio (+/− SEM) [1]: 1 + 0.2

Cc1ccc(NC(=O)Nc2cc(C(F)(F)F)cc(C(F)(F)F)c2)cc1O [Compound 6, 3-[3,5-bis(trifluoromethyl)phenyl]-1-(3-hydroxy-4-methylphenyl)urea]
ATF-4 Cmax (concentration corresponding to the maximal activity) [2]: 5 µM

COc1cc(NC(=O)Nc2ccc(Cl)c(C(F)(F)F)c2)ccc1C [Compound 8]
ATF-4 Cmax (concentration corresponding to the maximal activity) [2]: 10 µM

COc1cc(NC(=O)Nc2cc(C(F)(F)F)cc(C(F)(F)F)c2)ccc1C [Compound 9]
ATF-4 Cmax (concentration corresponding to the maximal activity) [2]: 20 µM

Cc1ccc(NC(=O)Nc2ccc(Cl)c(Cl)c2)cc1OCCN(C)C [Compound 11, 3-(3,4-dichlorophenyl)-1-{3-[2-(dimethylamino)ethoxy]-4-methylphenyl}urea]
ATF-4 Cmax (concentration corresponding to the maximal activity) [2]: 20 µM

Cc1ccc(NC(=O)Nc2ccc(Cl)c(C(F)(F)F)c2)cc1OCCN(C)C [Compound 12, 3-[4-chloro-3-(trifluoromethyl)phenyl]-1-{3-[2-(dimethylamino)ethoxy]-4-methylphenyl}urea]
ATF-4 Cmax (concentration corresponding to the maximal activity) [2]: 10 µM

Cc1ccc(NC(=O)Nc2cc(C(F)(F)F)cc(C(F)(F)F)c2)cc1OCCN(C)C [Compound 13, 3-[3,5-bis(trifluoromethyl)phenyl]-1-{3-[2-(dimethylamino)ethoxy]-4-methylphenyl}urea]
ATF-4 Cmax (concentration corresponding to the maximal activity) [2]: 10 µM

Cc1ccc(NC(=O)Nc2ccc(Cl)c(Cl)c2)cc1OCCN1CCOCC1 [Compound 15, 3-(3,4-dichlorophenyl)-1-{4-methyl-3-[2-(morpholin-4-yl)ethoxy]phenyl}urea]
ATF-4 Cmax (concentration corresponding to the maximal activity) [2]: 10 µM

Cc1ccc(NC(=O)Nc2ccc(Cl)c(C(F)(F)F)c2)cc1OCCN1CCOCC1 [Compound 16, 3-[4-chloro-3-(trifluoromethyl)phenyl]-1-{4-methyl-3-[2-(morpholin-4-yl)ethoxy]phenyl}urea]
ATF-4 Cmax (concentration corresponding to the maximal activity) [2]: 10 µM

Cc1ccc(NC(=O)Nc2cc(C(F)(F)F)cc(C(F)(F)F)c2)cc1OCCN1CCOCC1 [Compound 17, 3-[3,5-bis(trifluoromethyl)phenyl]-1-{4-methyl-3-[2-(morpholin-4-yl)ethoxy]phenyl}urea]
ATF-4 Cmax (concentration corresponding to the maximal activity) [2]: 10 µM

Cc1ccc(NC(=O)Nc2ccc(Cl)c(Cl)c2)cc1OCCN1CCNCC1 [Compound 23, 4-[2-(5-{[(3,4-dichlorophenyl)carbamoyl]amino}-2-methylphenoxy)ethyl]piperazine-1,4-diium dichloride]
ATF-4 Cmax (concentration corresponding to the maximal activity) [2]: 10 µM

Cc1ccc(NC(=O)Nc2cc(C(F)(F)F)cc(C(F)(F)F)c2)cc1OCCN1CCNCC1 [Compound 25, 4-{2-[5-({[3,5-bis(trifluoromethyl)phenyl]carbamoyl}amino)-2-methylphenoxy]ethyl}piperazine-1,4-diium dichloride]
ATF-4 Cmax (concentration corresponding to the maximal activity) [2]: 10 µM

O=C(Nc1ccc(Cl)c(Cl)c1)Nc1ncccc1O [Compound 26]
ATF-4 Cmax (concentration corresponding to the maximal activity) [2]: 40 µM

O=C(Nc1ccc(Cl)c(C(F)(F)F)c1)Nc1ncccc1O [Compound 27]
ATF-4 Cmax (concentration corresponding to the maximal activity) [2]: 40 µM

COc1ccc2nc3cccc([N+](=O)[O-])c3c(NCCCO)c2c1 [Compound 673797]
Activity 2.5 uM [3]: 2.54 | Activity 10 uM [3]: 4.7

Cc1cn(C2OC(CO[Si](C)(C)C(C)(C)C)C(N(C)O[Si](C)(C)C(C)(C)C)C2[Se]c2ccccc2)c(=O)[nH]c1=O (stereo not shown) [Compound 674469]
Activity 2.5 uM [3]: 1.37 | Activity 10 uM [3]: 23.82

Cc1cc(C)n(C(=C(C(Cl)=C(Cl)Cl)[N+](=O)[O-])n2nc(C)cc2C)n1 [Compound 678036]
Activity 2.5 uM [3]: 0.85 | Activity 10 uM [3]: 12.77

CC(C)[Si]1(C(C)C)OCC2OC(N3C(=O)NC(=O)C[C@@H]3C(O)c3ccccc3)CC2O[Si](C(C)C)(C(C)C)O1 (stereo partly shown) [Compound 680834]
Activity 2.5 uM [3]: 0.76 | Activity 10 uM [3]: 4.25

CN1/C(=C/C=C/C=C/C=C2C(=O)c3ccccc3C2=O)C(C)(C)c2ccccc21 [Compound 682512]
Activity 2.5 uM [3]: 0.57 | Activity 10 uM [3]: 10.02

c1ccc(-c2ccc(N=NN3CCCC3)cc2)cc1 [Compound 687753]
Activity 5 uM [3]: 4.922 | Activity 10 uM [3]: 6.931

C=CC(=O)N1C/C(=C\c2ccc(Cl)cc2)C(=O)/C(=C/c2ccc(Cl)cc2)C1 [Compound 687849]
Activity 2.5 uM [3]: 0.88 | Activity 10 uM [3]: 12.02

CN(C)c1ccc(/C=C2\CCCCCC2=O)cc1 [Compound 689962]
Activity 5 uM [3]: 4.784 | Activity 10 uM [3]: 7.987

Cn1/c(=N\S(=O)(=O)c2ccccc2)n(S(=O)(=O)c2ccccc2)c2ccccc21 [Compound 690404]
Activity 2.5 uM [3]: 1.46 | Activity 10 uM [3]: 3.03

COc1cc(/C=C2\CCC(C)/C(=C\c3cc(OC)c(OC)c(OC)c3)C2=O)cc(OC)c1OC (stereo not shown) [Compound 690734]
Activity 2.5 uM [3]: 0.48 | Activity 10 uM [3]: 10.02

FC(F)(Sc1ccccc1)c1nc2ccccc2o1 [Compound 691255]
Activity 5 uM [3]: 3.963 | Activity 10 uM [3]: 5.5705

FC(F)(Sc1ccccn1)c1nc2ccccc2o1 [Compound 691256]
Activity 5 uM [3]: 4.563 | Activity 10 uM [3]: 5.7865

Cn1ccnc1SC(F)(F)c1nc2ccccc2o1 [Compound 691258]
Activity 5 uM [3]: 3.891 | Activity 10 uM [3]: 3.904

O=[N+]([O-])c1cccc(-c2cn3c(n2)Cc2ccccc2C3)c1 [Compound 693037]
Activity 5 uM [3]: 6.794 | Activity 10 uM [3]: 8.088

COc1ccc(N=[N+]([O-])c2ccc(OC)cc2)cc1 [Compound 694092]
Activity 5 uM [3]: 4.958 | Activity 10 uM [3]: 5.898

COc1ccc([C@@H]2Sc3ccccc3N(CCN(C)C)C(=O)[C@@H]2OC(C)=O)cc1 [Dilthiazem]
Relative F-luc/R-luc Ratio (+/− SEM) [1]: 1.4 + 0.4

CO[C@@]12[C@H](COC(N)=O)C3=C(C(=O)C(C)=C(N)C3=O)N1C[C@@H]1N[C@@H]12 [mitomycin, reference compound]
Effect on firefly/renilla luciferase ratio [3]: no effect

C/C=C(/C)C(=O)O[C@H]1C(C)=C2[C@H]([C@@H]1OC(=O)CCCCCCC)[C@@](C)(OC(C)=O)C[C@H](OC(=O)CCC)[C@@]1(O)[C@H]2OC(=O)[C@@]1(C)O [thapsigargin, reference compound]
Effect on firefly/renilla luciferase ratio [3]: increase in the ratio of firefly activity relative to renilla activity

tunicamycin [reference compound]
Effect on firefly/renilla luciferase ratio [3]: increase in the ratio of firefly activity relative to renilla activity

Source: patent publication US9932300B2, “N,N′-diarylurea compounds and N,N′-diarylthiourea compounds as inhibitors of translation initiation” (President and Fellows of Harvard College, priority 2009, dated 2018)
